From ChEMBL document CHEMBL1201862, “PubChem BioAssay data set” (2004)
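How tested: cells in 96-well plates exposed to compound for 48 hours at five concentrations. Here, GI50 denotes the concentration required for 50% inhibition of growth.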 Active and inactive are the calls of the source. Rule as the data show it: active = GI50 up to about 1.1 µM and inactive = higher.

Legend:
Experiment in all cases: growth of human tumour cells (NCI), 48 h
786-0 = test system: 786-0
A498 = test system: A498
A549 = test system: A549
ACHN = test system: ACHN
CCRF-CEM = test system: CCRF-CEM
COLO 205 = test system: COLO 205
DLD-1 = test system: DLD-1
DMS-114 = test system: DMS-114
DMS-273 = test system: DMS-273
EKVX = test system: EKVX
HCC 2998 = test system: HCC 2998
HCT-116 = test system: HCT-116
HL-60 = test system: HL-60
HOP-18 = test system: HOP-18
HOP-62 = test system: HOP-62
HOP-92 = test system: HOP-92
HT-29 = test system: HT-29
IGROV-1 = test system: IGROV-1
K562 = test system: K562
KM-20L2 = test system: KM-20L2
KM12 = test system: KM12
LOX IMVI = test system: LOX IMVI
LXFL 529 = test system: LXFL 529
M19-MEL = test system: M19-MEL
MOLT-4 = test system: MOLT-4
Malme-3M = test system: Malme-3M
NCI-H23 = test system: NCI-H23
NCI-H460 = test system: NCI-H460
NCI-H522 = test system: NCI-H522
OVCAR-3 = test system: OVCAR-3
OVCAR-5 = test system: OVCAR-5
OVCAR-8 = test system: OVCAR-8
RPMI-8226 = test system: RPMI-8226
RXF 393 = test system: RXF 393
SF-268 = test system: SF-268
SF-295 = test system: SF-295
SF-539 = test system: SF-539
SK-MEL-28 = test system: SK-MEL-28
SK-MEL-2 = test system: SK-MEL-2
SK-MEL-5 = test system: SK-MEL-5
SK-OV-3 = test system: SK-OV-3
SNB-19 = test system: SNB-19
SNB-75 = test system: SNB-75
SNB-78 = test system: SNB-78
SW-620 = test system: SW-620
TK-10 = test system: TK-10
U-251 = test system: U-251
UACC-257 = test system: UACC-257
UO-31 = test system: UO-31
XF498 = test system: XF498

Measured: GI50

CCOC(=O)CCC1(C(=O)OC)CCCC1=O (stereo not given)
inactive: 786-0 > 100 µM | A498 > 100 µM | A549 > 100 µM | ACHN > 100 µM | CCRF-CEM > 10 µM | COLO 205 > 100 µM | DLD-1 > 100 µM | DMS-114 > 100 µM | DMS-273 > 100 µM | EKVX > 100 µM | HCC 2998 > 100 µM | HCT-116 > 100 µM | HL-60 > 100 µM | HOP-18 62.2 µM | HOP-62 > 100 µM | HOP-92 > 100 µM | HT-29 > 100 µM | IGROV-1 > 100 µM | K562 > 100 µM | KM-20L2 > 100 µM | KM12 > 100 µM | LOX IMVI > 100 µM | LXFL 529 > 100 µM | M19-MEL > 100 µM | MOLT-4 > 100 µM | Malme-3M > 100 µM | NCI-H23 > 100 µM | NCI-H460 > 100 µM | NCI-H522 > 100 µM | OVCAR-3 > 100 µM | OVCAR-5 > 100 µM | OVCAR-8 > 100 µM | RPMI-8226 > 100 µM | RXF 393 > 100 µM | SF-268 > 100 µM | SF-295 > 100 µM | SF-539 > 100 µM | SK-MEL-28 > 100 µM | SK-MEL-2 > 100 µM | SK-MEL-5 > 100 µM | SK-OV-3 > 100 µM | SNB-19 > 100 µM | SNB-75 > 100 µM | SNB-78 > 100 µM | SW-620 > 100 µM | TK-10 > 100 µM | U-251 > 100 µM | UACC-257 > 100 µM | UO-31 > 100 µM | XF498 > 100 µM
